Tested on: green fluorescent protein labeled Salmonella enterica serovar Typhimurium
Assay: Adherence of Salmonella to porcine derived IPEC J2 jejunal cells (Example 4)
Format: cell-based
Details: bacteria pre-exposed to 0.05M methyl α-D mannoside
Method: Porcine derived IPEC J2 jejunal cells were seeded onto 8-well chamber slides. […] The cells were exposed to suspensions containing a green fluorescent protein labeled Salmonella enterica serovar Typhimurium previously exposed for 10 minutes to an equal volume of water or to a suspension containing 17.5 mg Nutritional Composition/ml or 0.05M methyl α-D_mannoside. After the addition of treated or untreated bacteria, the chamber slides were incubated to allow attachment to occur and the wells of each slide were washed. Slides were examined by phase contrast microscopy at 1,000× magnification, and numbers of attached cells of the green fluorescent protein labeled Salmonella enterica serovar Typhimurium were counted on 100 randomly selected IPEC J2 cells.

Which “Salmonella binding to the IPEC J2 cells” value does the source give for `CO[C@H]1O[C@H](CO)[C@@H](O)[C@H](O)[C@@H]1O` [methyl α-D mannoside, methyl α-D-mannoside] here?
Its value is “no effect”.

— patent US9351515B2, “Nutritional composition and methods of making and using same” (Georgia-Pacific Panel Products LLC, priority 2009, dated 2016)
